In patent US20180118786A1, “NOVEL lNHIBITORS OF THE ENZYME ACTIVATED FACTOR XII (FXIIA)” (ECOLE POLYTECHNIQUE FEDERALE DE LAUSANNE (EPFL), priority 2015, published 2018):
Blank lines part the entries; values can stand above or below the compound they belong to. Starred links: 1 amine or outer side, 2 acyl side, 3 side chain; linkers in the order of their positions; H or OH if unused. Positions of bridges follow the written chain, without caps; N, C: chain ends. Non-standard residues stand in square brackets, D forms with d. Residues, ends and D or L forms follow the SMILES beside them. TATA = O=C(CC[*:1])N1CN(C(=O)CC[*:2])CN(C(=O)CC[*:3])C1; Phe(4-F) = N[C@@H](Cc1ccc(F)cc1)C(=O)O; β3hR = N=C(N)NCCC[C@H](N)CC(=O)O

Columns and labels:
Plasma stability assay = conditions: human
Protocol: (§6) Peptide (2 μl of 2 mM in H2O) was added to 398 μl human plasma (final peptide concentration was 10 μM in 400 μl final volume). The mixture was incubated in the water bath at 37° C. At 8 different time points (0 h, 30 min, 1 h, 2 h, 4 h, 8 h, 12 h, 24 h and in some cases 48 h) a sample of 30 μl was removed, diluted to 200 μl with the same buffer used for protease inhibition assay (see above) and heat-inactivated for 20 min at 65° C. During this step proteases present in plasma are being inactivated, that would otherwise interfere with the subsequently performed enzymatic assay. […] Before analysis, plasma samples were centrifuged for 5 min at 16′000 g and the supernatant was collected. A twofold dilution series ranging from 0.0005-0.5 μM was prepared. IC50 values were derived from the fitted curve using the equation indicated above. Residual inhibition in % was calculated using the following formula: IC50, 0h/IC50, xh*100 wherein IC50, 0h is the functional strength of the inhibitor at time point 0 and IC50, xh the functional strength of inhibitor after one of the different plasma incubation period mentioned above.
(§7) The activity of the plasma proteases was heat-inactivated by incubation of the samples at 65° C. for 10 minutes.

human β-FXIIa = target: T1, human β-FXIIa (Homo sapiens, UniProt P00748); assay: Protease inhibition assay with fluorogenic substrate (Example 1); type: biochemical
T1 construct: human β-FXIIa, a naturally occurring proteolytic product of FXIIa comprising only the catalytic domain; purchased Molecular Innovations HFXIIAB
Protocol: The inhibitory activity of bicyclic peptides was determined by incubation with proteases and quantification of their residual activity with a fluorogenic substrate. Final concentration of human b-FXIIa (HFXIIAB; Molecular Innovations) and mouse α-FXIIa (MFXIIA; Molecular Innovations) was 10 nM. Dilutions of peptides were prepared ranging from 0.2-200 mM. Fluorescence intensity was measured with an Infinite M200Pro fluorescence plate reader (excitation at 355 nm, emission at 460 nm; Tecan, Männedorf, Switzerland). The reactions were performed at RT. Sigmoidal curves were fitted to the data using the following dose response equation wherein x=peptide concentration, y=% activity of reaction without peptide, A1=100%, A2=0%, p=1. IC50 values were derived from the fitted curve.
The inhibitory constant Ki was calculated according to the equation of Cheng and Prusoff^29 Ki=/050/(1+([S]0/Km) wherein IC50 is the functional strength of the inhibitor, [S]0 is the total substrate concentration, and Km is the Michaelis-Menten constant.

trypsin [1] = target: T2, trypsin (Homo sapiens, UniProt P07477); assay: Specificity FXII618 vs CTI, trypsin; type: biochemical
[2] = system: intrinsic pathway of coagulation; assay: aPTT in human plasma (Example 1); type: biochemical
Protocol: (§1) aPTT, PT and FXII coagulant activity (FXII:c) measurements Coagulation times (aPTT, PT) and FXIIa activity were determined in human plasma using an automated blood coagulation analyzer (Sysmex CS-5100, Siemens, Eschborn, Germany) with according to the manufacturer's instructions (Siemens). Extrinsic coagulation was triggered with Innovin® (recombinant human tissue factor, synthetic phospholipids and calcium in stabilized HEPES buffer system; Dade Behring/Simens). Intrinsic coagulation was triggered with Pathromtin* SL (Siemens). Human plasma used in this study was derived from a pool of fresh frozen plasma units provided by the Service Regional Vaudois de Transfusion Sanguine, Switzerland.
(§2) Coagulation times (aPTT, PT) and FXIIa activity were determined, at least in duplicate, in human plasma using an automated blood coagulation analyzer (Sysmex CA-7000) with standard reagents according to the manufacturer's instructions (Siemens Healthcare, Eschborn, Germany). Human plasma used in this study was derived from a pool of fresh frozen plasma units provided by the Service Regional Vaudois de Transfusion Sanguine, Switzerland.

extrinsic pathway = assay: PT in human plasma (Example 1); type: biochemical; conditions: 40 μM
Protocol: as §1, §2

FXII = target: T3, FXII (Homo sapiens, UniProt P00748); assay: FXII coagulant activity (FXII:c) in human plasma; type: biochemical; conditions: 50 μM
T3 construct: from tissue; host or cells: pooled fresh frozen human plasma
T3 sequence (P00748 20-615): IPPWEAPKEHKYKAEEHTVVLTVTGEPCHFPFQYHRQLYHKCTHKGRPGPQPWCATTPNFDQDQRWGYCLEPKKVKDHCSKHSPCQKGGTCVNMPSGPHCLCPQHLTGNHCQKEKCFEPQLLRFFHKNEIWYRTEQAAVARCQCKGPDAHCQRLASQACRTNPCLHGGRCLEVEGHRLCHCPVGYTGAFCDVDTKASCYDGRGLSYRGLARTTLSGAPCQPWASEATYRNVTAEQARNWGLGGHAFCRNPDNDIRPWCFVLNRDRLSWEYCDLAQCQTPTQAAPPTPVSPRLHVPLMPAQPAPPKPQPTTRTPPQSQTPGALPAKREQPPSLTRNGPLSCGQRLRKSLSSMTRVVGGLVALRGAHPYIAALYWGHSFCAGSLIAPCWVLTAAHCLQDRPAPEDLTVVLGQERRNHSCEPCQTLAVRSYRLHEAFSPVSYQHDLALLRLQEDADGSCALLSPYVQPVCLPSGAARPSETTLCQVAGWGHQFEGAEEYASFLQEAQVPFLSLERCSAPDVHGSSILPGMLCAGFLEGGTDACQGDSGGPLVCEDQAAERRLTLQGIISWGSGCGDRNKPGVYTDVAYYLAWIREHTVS
Protocol: as §1, §2

[3] = system: intrinsic pathway (contact activation); assay: Thrombin generation assay by CAT triggered by ellagic acid; type: biochemical, human; conditions: ellagic acid trigger, 20 μg/mL
Protocol: (§3) Thrombin generation was performed as previously described with some modifications.30 In brief, 60 μL platelet poor plasma (PPP), 20 μL FXIIa inhibitor/HA buffer (Hepes 20 mM, NaCl 140 mM, pH 7.4, 5 mg/mL BSA), and 20 μL PPP reagent, PPP LOW reagent, MP reagent or Actin FS (1:170 diluted in HA buffer) were mixed in a 96-well microtiter plate (Immulon 2HB; Thermo Fisher Scientific) and incubated for 15 min at 37° C. Thrombin generation was triggered by the addition of 20 μL of substrate/calcium chloride buffer (FLUKA) at 37° C. Samples were tested in triplicate for each condition. Fluorogenic thrombin substrate hydrolysis was measured every 20 s for 120 min on a microplate fluorometer (Fluoroskan Ascent FL; Thermo Fisher Scientific) with a 390/460-nm (excitation/emission) filter set. Data analysis was performed on the Thrombinoscope software (Synapse By). PPP reagent (TF […], PL 4 μM), PPP LOW reagent (TF […], PL 4 μM), MP reagent (PL 4 μM), thrombin calibrator and FLUKA were purchased from Synapse By.

[4] = system: thrombin generation in platelet poor plasma; assay: Thrombin generation assay by CAT, TF-triggered or without trigger; type: biochemical, human; set-up: lag time: unit not given here
Protocol: as §3
Venous blood was collected from healthy volunteers by antecubital venipuncture with 19-gauge needles in 3,2% (w/v) citrated Monovette plastic tubes. In order to minimize contact activation, the first collection tube containing EDTA was discarded according to standard procedures. […] Blood was then processed to PPP by an initial centrifugation step at 2,000 g for 5 min followed by a second centrifugation step at 10,000 g for 10 min. Plasma aliquots were stored at −80 until analysis.

FXII activity = target: T4, FXII activity (Mus musculus, UniProt Q80YC5); assay: Inhibition of FXII activity in vivo; set-up: species or system BALB/c mice; conditions: mice
T4 construct: from tissue; host or cells: plasma of BALB/c mice after injection
T4 sequence (Q80YC5 20-597): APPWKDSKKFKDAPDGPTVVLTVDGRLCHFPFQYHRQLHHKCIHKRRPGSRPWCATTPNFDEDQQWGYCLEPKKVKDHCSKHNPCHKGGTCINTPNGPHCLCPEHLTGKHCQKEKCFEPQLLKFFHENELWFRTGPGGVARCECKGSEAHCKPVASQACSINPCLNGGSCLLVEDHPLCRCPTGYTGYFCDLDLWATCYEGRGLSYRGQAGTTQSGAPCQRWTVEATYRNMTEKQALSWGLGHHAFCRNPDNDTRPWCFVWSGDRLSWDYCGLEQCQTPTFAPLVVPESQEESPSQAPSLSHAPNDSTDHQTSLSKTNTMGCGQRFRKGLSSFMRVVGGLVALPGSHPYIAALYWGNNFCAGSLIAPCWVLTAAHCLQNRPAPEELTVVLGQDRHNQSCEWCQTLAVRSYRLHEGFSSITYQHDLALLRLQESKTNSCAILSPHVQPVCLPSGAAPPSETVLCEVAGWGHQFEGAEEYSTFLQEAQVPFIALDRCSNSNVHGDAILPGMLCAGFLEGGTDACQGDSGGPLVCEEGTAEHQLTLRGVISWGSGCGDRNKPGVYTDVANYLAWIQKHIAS
Protocol: Female BALB/c mice were anesthetized with 125 mg/kg pentobarbital. […] Five minutes later, blood was collected from the vena cava at a 1:9 blood to citrate ratio. Plasma was prepared by centrifugation at 2,400 g 10 minutes at RT. FXIIa activity was assessed as described above.

[5] = system: thrombin generation in platelet poor plasma; assay: Thrombin generation assay by CAT, TF-triggered or without trigger; type: biochemical, human; conditions: 1 pM TF, 100 μg/mL inhibitor
in vitro = conditions: human, plasma
Protocol: as §6, §7

[6] = system: structurally related or functionally important proteases; assay: Specificity testing (Example 2), other proteases; type: biochemical, human
Protocol: (§4) For the specificity testing the following final concentrations of human serine proteases were used: tPA (Molecular Innovations) 7.5 nM, uPA (Molecular Innovations) 1.5 nM, factor XIa (Innovative Research, Novi, Mich., U.S.) 6 nM, PK (Innovative Research) 0.25 nM, thrombin (Molecular Innovations) 1 nM, plasmin (Molecular Innovations) 2.5 nM, trypsin (Molecular Innovations) 0.05 nM, factor VIIa (Haematologic Technologies Inc.) 50 nM and factor Xa (Haematologic Technologies Inc,) 6 nM.
(§5) Dilutions of peptides were prepared ranging from 0.04 to 40 μM.

[7] = system: intrinsic coagulation pathway; assay: aPTT in human plasma (Example 2); type: biochemical
Protocol: Coagulation times (aPTT, PT) were determined in human plasma using a blood coagulation analyzer (STart. Hemostasis coagulation analyzer, Diagnostica Stago). Extrinsic coagulation was triggered with Innovin (recombinant human tissue factor, synthetic phospholipids and calcium in stabilized HEPES buffer system; Dade Behring; Siemens). Intrinsic coagulation was triggered with Pathromtin* SL (Siemens). Pooled normal human plasma used in this study was provided by Innovative research (USA).
The ability to selectively suppress the intrinsic coagulation pathway was assessed in in vitro coagulation assays. Activated partial thromboplastin time (aPTT) and prothrombin time (PT) measure the time to coagulation upon initiation of coagulation either via the intrinsic (aPTT) or the extrinsic pathway (PT). These tests have been performed in human plasma in the presence of different concentrations of FXIIa-inhibitors. Selective FXIIa inhibition is expected to increase aPTT but not PT. […] At a concentration of 5 μM peptide inhibitor no coagulation via the intrinsic pathway occurred within 120 s. Additionally, there was a correlation between inhibitory activity against FXIIa and extent of aPTT prolongation.

trypsin [8] = target: T2, trypsin; assay: Specificity testing (Example 2), trypsin; type: biochemical; set-up: purchased Molecular Innovations
Protocol: as §4, §5

[9] = absence of extrinsic- or intrinsic-specific trigger, 100 μg/mL inhibitor

SMILES: CC(C)C[C@@H]1NC(=O)[C@H](CCC(N)=O)NC(=O)[C@H](Cc2c[nH]cn2)NC(=O)[C@@H]2CSCCC(=O)N3CN(CN(C3)C(=O)CCSC[C@H](NC(=O)[C@@H](CO)NC(=O)[C@H](N)CCCNC(=N)N)C(=O)N[C@@H](Cc3ccc(F)cc3)C(=O)N[C@@H](CCCNC(=N)N)C(=O)N[C@@H](CC(C)C)C(=O)N3CCC[C@H]3C(=O)N2)C(=O)CCSC[C@@H](C(N)=O)NC(=O)C[C@H](CCCNC(=N)N)NC1=O [JS33-R] (H-[dR][dS]C[Phe(4-F)]RLPCHQL[β3hR]C-NH2; linker 3-8-13 via TATA; N-terminus and C-terminus assumed)
half-life at 10 μM (Plasma stability assay): 127 h

more potent than PCK (human β-FXIIa; compared to PCK): around 8 fold | more potent than inhibitor 44 (human β-FXIIa; compared to small molecule FXIIa inhibitor 44): > 200 fold | improvement in inhibiting human FXIIa (human β-FXIIa; in comparison to parent FXII516): 8 fold | inhibition of trypsin (trypsin [1]; at a concentration as high as 1000 nM): no inhibition | trypsin inhibition weaker compared to CTI (trypsin [1]; compared to CTI): around 100 fold | FXII coagulant activity (FXII:c) (FXII): < 5% | PT (FXII activity; 3.5 mg/kg FXII618 combined with 3.5 mg/kg PK128): 7.1 ± 0.2 s | FXII activity (FXII activity; 3.5 mg/kg FXII618 combined with 3.5 mg/kg PK128 r.o., blood after five minutes): 49.7+/−13.9% | half-life at 10 μM (in vitro): 3.9 ± 1.9 h
SMILES: CC(C)C[C@@H]1NC(=O)[C@H](CCC(N)=O)NC(=O)[C@H](CCCNC(=N)N)NC(=O)[C@@H]2CSCCC(=O)N3CN(CN(C3)C(=O)CCSC[C@H](NC(=O)[C@@H](N)CCCNC(=N)N)C(=O)N[C@@H](Cc3ccccc3)C(=O)N[C@@H](CCCNC(=N)N)C(=O)N[C@@H](CC(C)C)C(=O)N3CCC[C@H]3C(=O)N2)C(=O)CCSC[C@@H](C(=O)N[C@@H](CCCNC(=N)N)C(N)=O)NC(=O)[C@H](CCCNC(=N)N)NC1=O [FXII618]
aPTT ([2]; citrated platelet poor plasma, 100 μg/mL inhibitor): > 170 s | aPTT ([2]; human plasma, 40 μM): > 170 s | effect on extrinsic pathway (PT) (extrinsic pathway): without affecting the extrinsic pathway | reduction of endogenous thrombin potential (ETP) [3]: > 90% | reduction of peak [3]: > 90% | lag time ([4]; 0.25 pM TF, 100 μg/mL inhibitor): 12.3±0.3 | lag time [4, 9]: 55.8±3.7 | peak [4, 9]: 60.3±0.8 | effect on TF-induced thrombin generation ([4]; high concentration of TF, 100 μg/mL inhibitor): did not affect TF-induced thrombin generation | thrombin activation ([4]; inhibitor added to whole blood immediately after sampling, no trigger): completely block thrombin activation | effect on thrombin generation [5]: no significant effect

half-life at 10 μM (in vitro): 15.5 ± 3.9 h | selectivity over trypsin (trypsin [8]): 300 fold
SMILES: CC(C)C[C@@H]1NC(=O)[C@H](CCC(N)=O)NC(=O)[C@H](CCCNC(=N)N)NC(=O)[C@@H]2CSCCC(=O)N3CN(CN(C3)C(=O)CCSC[C@H](NC(=O)[C@@H](N)CCNC(=N)N)C(=O)N[C@@H](Cc3ccc(F)cc3)C(=O)N[C@@H](CCCNC(=N)N)C(=O)N[C@@H](CC(C)C)C(=O)N3CCC[C@H]3C(=O)N2)C(=O)CCSC[C@@H](C(=O)N[C@@H](CCCNC(=N)N)C(N)=O)NC(=O)[C@H](CCCNC(=N)N)NC1=O [peptide 73]
selectivity over other plasma proteases [6]: ≥ 11,000 fold | inhibition of eight of the ten proteases ([6]; highest concentration tested (40 μM)): less than 20% | aPTT prolongation compared with peptide 1 [7]: significantly increased aPTT prolongation
